Here are results for 14 molecules from patent US9434734B2, “Substituted pyrazoloquinazolinones and pyrroloquinazolinones as allosteric modulators of group II metabotropic glutamate receptors” (Domain Therapeutics, priority 2012, dated 2016).

Molecules are shown by their SMILES.

For series [1], the target named is human mGluR3 (hmGluR3) (Homo sapiens, UniProt Q14832). Kind of series: mGluR3 negative allosteric modulator activity. Type of series: cell-based.
Series [2] addresses T1, human mGluR2 (hmGluR2) transiently over-expressed in HEK-293 cells (Homo sapiens, UniProt Q14416).
T1 construct: expressed in transfected cells; host or cells: HEK-293 cells, transient co-transfection by electroporation
Nature of the series: Human mGluR2 negative allosteric modulator evaluation using Ca++ functional assay (agonist and NAM activity). Type of series: cell-based. As to conditions: hmGluR2 in HEK-293 cells, EC80 glutamate, Fluo4AM calcium readout; read-out: mGluR2 negative allosteric modulator activity IC50. Summed up: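 Compound alone (agonist mode) was followed on the same plate by EC80 glutamate (NAM mode), with fluorescence read 60 s. Eight-point curves, variable-slope fit, duplicate, two independent runs.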

T1 sequence (Q14416 19-872): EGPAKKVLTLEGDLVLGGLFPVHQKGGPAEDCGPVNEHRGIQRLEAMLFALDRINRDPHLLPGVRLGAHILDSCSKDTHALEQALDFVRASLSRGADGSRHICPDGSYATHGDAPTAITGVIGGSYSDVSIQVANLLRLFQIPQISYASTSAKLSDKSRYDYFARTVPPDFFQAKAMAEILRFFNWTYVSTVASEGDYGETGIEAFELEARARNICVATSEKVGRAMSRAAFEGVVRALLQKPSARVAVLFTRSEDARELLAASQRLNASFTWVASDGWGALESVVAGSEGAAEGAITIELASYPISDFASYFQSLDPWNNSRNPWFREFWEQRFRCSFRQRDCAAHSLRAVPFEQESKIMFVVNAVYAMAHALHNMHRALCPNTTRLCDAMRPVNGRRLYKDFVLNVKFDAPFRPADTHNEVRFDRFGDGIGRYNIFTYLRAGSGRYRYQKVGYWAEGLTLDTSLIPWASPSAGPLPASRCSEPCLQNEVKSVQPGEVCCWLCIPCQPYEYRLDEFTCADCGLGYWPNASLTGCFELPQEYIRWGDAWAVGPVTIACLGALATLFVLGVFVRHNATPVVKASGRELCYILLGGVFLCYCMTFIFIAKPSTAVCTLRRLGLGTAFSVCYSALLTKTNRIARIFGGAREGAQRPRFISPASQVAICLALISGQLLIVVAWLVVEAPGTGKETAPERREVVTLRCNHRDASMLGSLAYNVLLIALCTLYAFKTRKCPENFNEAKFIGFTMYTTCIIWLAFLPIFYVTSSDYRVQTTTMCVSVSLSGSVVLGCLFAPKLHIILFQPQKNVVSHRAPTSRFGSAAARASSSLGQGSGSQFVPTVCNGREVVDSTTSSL
Chain of human mGluR3 (hmGluR3) (Q14832 23-879): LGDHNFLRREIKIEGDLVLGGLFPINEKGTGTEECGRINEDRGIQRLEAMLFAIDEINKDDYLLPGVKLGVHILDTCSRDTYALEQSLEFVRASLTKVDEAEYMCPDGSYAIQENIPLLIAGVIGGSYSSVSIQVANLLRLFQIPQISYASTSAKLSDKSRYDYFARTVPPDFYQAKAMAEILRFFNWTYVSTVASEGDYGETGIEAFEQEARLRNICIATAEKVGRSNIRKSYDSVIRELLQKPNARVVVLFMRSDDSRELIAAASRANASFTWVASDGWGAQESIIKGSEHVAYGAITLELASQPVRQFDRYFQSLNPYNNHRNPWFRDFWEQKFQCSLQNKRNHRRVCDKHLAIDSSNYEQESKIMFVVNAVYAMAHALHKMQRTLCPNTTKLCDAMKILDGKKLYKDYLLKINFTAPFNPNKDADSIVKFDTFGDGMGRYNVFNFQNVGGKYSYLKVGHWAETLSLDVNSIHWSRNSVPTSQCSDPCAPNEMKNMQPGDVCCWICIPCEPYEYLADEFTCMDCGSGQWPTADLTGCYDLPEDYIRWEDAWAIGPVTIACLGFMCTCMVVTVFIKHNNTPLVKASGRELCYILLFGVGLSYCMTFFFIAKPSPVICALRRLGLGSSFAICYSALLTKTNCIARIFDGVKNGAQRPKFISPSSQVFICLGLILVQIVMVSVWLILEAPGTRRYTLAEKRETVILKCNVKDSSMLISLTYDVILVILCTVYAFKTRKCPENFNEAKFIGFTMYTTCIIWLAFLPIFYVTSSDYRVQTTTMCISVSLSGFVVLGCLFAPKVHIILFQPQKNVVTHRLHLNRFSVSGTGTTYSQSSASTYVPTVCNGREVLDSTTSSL

Take `Cn1c(=O)c2ccc(-c3cccc(C(=O)O)c3)cc2n2nc(-c3ccccc3)cc12` [Example 34, 3-(4-Methyl-5-oxo-2-phenyl-4,5-dihydro-pyrazolo[1,5-a]quinazolin-8-yl)-benzoic Acid]: the melting point is greater than 250 °C. Moreover, the IC50 in series [1] was less than 1 µM. In series [2], the IC50 was less than 1 µM.

For the molecule `CCn1c(=O)c2ccc(-c3ccc(N)nc3)cc2n2nc(C3CCCC3)cc12.Cl` [Example 69, 8-(6-Amino-pyridin-3-yl)-2-cyclopentyl-4-ethyl-4H-pyrazolo[1,5-a]quinazolin-5-one], the melting point was greater than 250 °C. In series [1], this molecule showed an IC50 of less than 1 µM. In addition, the IC50 in series [2] is less than 1 µM.

As for `Cc1cc(-c2ccc3c(=O)n(C)c4cc(C5CCCCO5)nn4c3c2)cc(C)n1.Cl` (stereo not drawn) [Example 109, 8-(2,6-Dimethyl-pyridin-4-yl)-4-methyl-2-(tetrahydro-pyran-2-yl)-4H-pyrazolo[1,5-a]quinazolin-5-one], the melting point lay within 186 to 194 °C. The IC50 in series [2] was less than 1 µM.

For `CCn1cc(-c2cc3n(C)c(=O)c4ccc(-c5ccc(N)nc5)cc4n3n2)cn1.Cl` [Example 131, 8-(6-Amino-pyridin-3-yl)-2-(1-ethyl-1H-pyrazol-4-yl)-4-methyl-4H-pyrazolo[1,5-a]quinazolin-5-one], the melting point lay within 226 to 238 °C. Besides, the IC50 in series [2] was less than 1 µM.

The molecule `COCCc1cc2n(C)c(=O)c3ccc(-c4ccc(N)nc4)cc3n2n1.Cl` [Example 53, 8-(6-Amino-pyridin-3-yl)-2-(2-methoxy-ethyl)-4-methyl-4H-pyrazolo[1,5-a]quinazolin-5-one] returned a melting point of 198 to 202 °C. Moreover, the IC50 in series [2] is less than 1 µM.

In the case of `Cc1cc(-c2ccc3c(=O)n(C)c4cc(C5CCOC5)nn4c3c2)cc(C)n1.Cl` (stereo not drawn) [Example 106, 8-(2,6-Dimethyl-pyridin-4-yl)-4-methyl-2-(tetrahydro-furan-3-yl)-4H-pyrazolo[1,5-a]quinazolin-5-one], the melting point is greater than 250 °C. For the same molecule, in series [2], the IC50 is less than 1 µM.

In the case of `CC(C)n1c(=O)c2ccc(-c3ccc(N)nc3)cc2n2nc(-c3ccccc3)cc12.Cl` [Example 47, 8-(6-Amino-pyridin-3-yl)-4-isopropyl-2-phenyl-4H-pyrazolo[1,5-a]quinazolin-5-one], the melting point was 214 to 216 °C. In addition, the IC50 in series [2] was less than 1 µM.

In turn, `CCCn1c(=O)c2ccc(-c3cccc(S(=O)(=O)N(C)C)c3)cc2n2nc(-c3ccccc3)cc12` [Example 40, N,N-Dimethyl-3-(4-propyl-5-oxo-2-phenyl-4,5-dihydro-pyrazolo[1,5-a]quinazolin-8-yl)-benzenesulfonamide] displayed a melting point of 112 to 116 °C. In addition, the IC50 in series [2] is less than 1 µM.

The molecule `Cc1cc(-c2ccc3c(=O)n(C)c4cc(-c5ccccc5)nn4c3c2)cc(C)n1.Cl` [Example 37, 8-(2,6-Dimethyl-pyridin-4-yl)-4-methyl-2-phenyl-4H-pyrazolo[1,5-a]quinazolin-5-one] had a melting point greater than 250 °C. For the same molecule, the IC50 in series [2] was less than 1 µM.

In turn, `CCn1c(=O)c2ccc(-c3ccc(N)nc3)cc2n2nc(-c3ccccc3)cc12.Cl` [Example 43, 8-(6-Amino-pyridin-3-yl)-4-ethyl-2-phenyl-4H-pyrazolo[1,5-a]quinazolin-5-one] returned a melting point of 207 to 208 °C. The IC50 in series [2] was less than 1 µM.

`Cl.Nc1ccc(-c2ccc3c(=O)n(CC(F)F)c4cc(C5CCOCC5)nn4c3c2)cn1` [Example 103, 8-(6-Amino-pyridin-3-yl)-4-(2,2-difluoro-ethyl)-2-(tetrahydro-pyran-4-yl)-4H-pyrazolo[1,5-a]quinazolin-5-one] had a melting point greater than 250 °C. Further, the IC50 in series [2] was less than 1 µM.

On to `Cc1cc(N)ncc1-c1ccc2c(=O)n(C)c3cc(-c4ccccc4)nn3c2c1.Cl` [Example 24, 8-(6-Amino-4-methyl-pyridin-3-yl)-4-methyl-2-phenyl-4H-pyrazolo[1,5-a]quinazolin-5-one], for which the melting point was 235 to 240 °C. Besides, the IC50 in series [2] is less than 1 µM.

The molecule `Cn1c(=O)c2ccc(-c3ccc(N)cc3)cc2n2nc(-c3ccccc3)cc12` [Example 3, 8-(4-Amino-phenyl)-4-methyl-2-phenyl-4H-pyrazolo[1,5-a]quinazolin-5-one] had a melting point of 173 to 175 °C. Further, the IC50 in series [2] is less than 1 µM.

`Cn1c(=O)c2ccc(-c3ccc(S(N)(=O)=O)cc3)cc2n2nc(-c3ccccc3)cc12` [Example 10, 4-(4-Methyl-5-oxo-2-phenyl-4,5-dihydro-pyrazolo[1,5-a]quinazolin-8-yl)-benzenesulfonamide] came in with a melting point greater than 250 °C. Moreover, the IC50 in series [2] is less than 1 µM.
